In data set [1] the test system is HIV-1. As to conditions: TC50/IC50 in human PBMCs.
Procedure: (§1) R-flurbiprofen was supplied in powder form from Catalytica Pharmaceutical Inc., Greenville, N.C. and was solubilized in DMSO to yield a 200 mM stock solution. For these studies, the compound was tested at a high-test concentration of 1000 μM along with eight serial half-logarithmic dilutions (1000 μM down to 0.01 μM). AZT was used as a positive control antiviral compound.
(§2) Fresh human blood was obtained commercially from Interstate Blood Bank, Inc. (Memphis, Tenn.). […] The laboratory-adapted HIV-1IIIB strain was propagated and tittered in fresh human PBMCs; pre-titered aliquots of HIV-1ROJO and Hiv-1IIIB were removed from the freezer (−80° C.) and thawed rapidly to room temperature in a biological safety cabinet immediately before use. Phytohemagglutinin (PHA-P) was obtained from Sigma (St. Louis, Mo.) and recombinant IL-2 was obtained from Amgen (San Francisco, Calif.).
(§3) Fresh human PBMCs were isolated from screened donors, seronegative for HIV and HBV. Leukophoresed blood was diluted 1:1 with Dulbecco's phosphate buffered saline (PBS), layered over 14 mL of Ficoll-Hypaque density gradient in a 50 mL centrifuge tube and then centrifuged for 30 minutes at 600×g. Banded PBMCs were aspirated from the resulting interface and subsequently washed 2× with PBS by low speed centrifugation. After the final wash, cells were enumerated by trypan blue exclusion and re-suspended at 1×10^7 cells/mL in RPMI 1640 supplemented with 15% Fetal Bovine Serum (FBS), 2 mM L-glutamine, 4 μg/mL PHA-P. The cells were allowed to incubate for 48-72 hours at 37° C. After incubation, PBMCs were centrifuged and reset in RPMI 1640 with 15% FBS, 2 mM L-glutamine, 100 U/ml penicillin, 100 μg/mL streptomycin, 10 μg/mL gentamycin, and 20 U/mL recombinant human IL-2. PBMCs were maintained in this medium at a concentration of 1-2×10^6 cells/mL with biweekly medium changes until used in the assay protocol.
(§4) For the standard PBMC assay, PHA-P stimulated cells from at least two normal donors were pooled, diluted in fresh medium to a final concentration of 1×10^6 cells/mL, and plated in the interior wells of 96 well round bottom microplate at 50 μL/well (5×10^4 cells/well). Test drug dilutions were prepared at a 2× concentration in microtiter tubes and 100 μL of each concentration was placed in appropriate wells in a standard format. 50 μL of a predetermined dilution of virus stock was placed in each test well (final MOI ≈0.1). Wells with cells and virus alone were used for virus control. Separate plates were prepared identically without virus for drug cytotoxicity studies using an XTT assay system. The PBMC cultures were maintained for seven days following infection, at which time cell-free supernate samples were collected and assayed for reverse transcriptase activity as described below. […]
For data set [2], the system named is HIV-1. The experiment in a line: microbe, parasite or virus in culture. To be noted: Human immunodeficiency virus 1, PBMC, 168 h.
Procedure: as §1, §2, §3, §4
The nature of a further data set: in vitro. Format: cell-based. As to conditions: human. The protocol:
At assay termination the assay plates were stained with the soluble tetrazolium-based dye MTS (CellTiter Reagent, Promega) to determine cell viability and quantify compound toxicity. MTS is metabolized by the mitochondria enzymes of metabolically active cells to yield a soluble formazan product, allowing the rapid quantitative analysis cell viability and compound cytotoxicity. […] At termination of the assay, 20 μl of MTS reagent was added per well. The wells were incubated overnight for the HIV cytoprotection assay at 37° C. The incubation intervals were chosen based on empirically determined times for optimal dye reduction in each cell type. Adhesive plate sealers were used in place of the lids, the sealed plate was inverted several times to mix the soluble formazan product and the plate was read spectrophotometrically at 490 nm with a Molecular Devices Vmax plate reader.

This note sets out measurements from patent US20030027867A1, “Use of R-NSAID compounds for anti-HIV treatment” (Myriad Genetics, Incorporated, priority 2001, published 2003).

Each structure is given as a SMILES string.

As usually defined, the IC50 is the point on the concentration scale where inhibition reaches its midpoint. A high value points to a need for much substance. In general, CC50 refers to the concentration that lowers cell viability or growth by half. A low value points to harm at low concentration. For the molecule `Cc1cn([C@H]2C[C@H](N=[N+]=[N-])[C@@H](CO)O2)c(=O)[nH]c1=O` [AZT, 3′-Azido-3′-deoxythymidine], the “Therapeutic Index” value in the data set with HIV-1 [1] was over 400.00. The IC50 in the data set on HIV-1 [2] was 0.01 µM. This molecule displayed a CC50 at 7 days in the data set “in vitro” of over 4 µM.

On to `CC(C(=O)O)c1ccc(-c2ccccc2)c(F)c1` (stereo not drawn) [R-flurbiprofen, 3-fluoro-4-phenylhydratropic acid], for which the “Therapeutic Index” value in the data set with HIV-1 [1] came out at 3.1. Also, half-maximal inhibition with HIV-1 [2] (IC50) required 238 µM. For the same molecule, the CC50 at 7 days in “in vitro” was 731 µM.
